According to PubChem BioAssay (NCI):
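Exposure lasted 48 hours, with cells grown in 96-well plates and compounds tested at five concentrations. TGI denotes the concentration required for complete inhibition of growth.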

Tests used:
Experiment in all cases: NCI anticancer screen, dose series, 48 h
LXFL 529 NSCLC = test system: LXFL 529 NSCLC
SW-620 colon = test system: SW-620 colon
OVCAR-4 ovarian = test system: OVCAR-4 ovarian
KM20L2 colon = test system: KM20L2 colon
KM12 colon = test system: KM12 colon
HL-60(TB) leukemia = test system: HL-60(TB) leukemia
OVCAR-5 ovarian = test system: OVCAR-5 ovarian
SR leukemia = test system: SR leukemia
LOX IMVI melanoma = test system: LOX IMVI melanoma
RPMI-8226 leukemia = test system: RPMI-8226 leukemia
SK-OV-3 ovarian = test system: SK-OV-3 ovarian
RXF 393 renal = test system: RXF 393 renal
IGROV1 ovarian = test system: IGROV1 ovarian
M19-MEL melanoma = test system: M19-MEL melanoma
DMS 114 small cell lung = test system: DMS 114 small cell lung
A549 NSCLC = test system: A549 NSCLC
M14 melanoma = test system: M14 melanoma
786-0 renal = test system: 786-0 renal
UACC-62 melanoma = test system: UACC-62 melanoma
SNB-78 CNS = test system: SNB-78 CNS
UACC-257 melanoma = test system: UACC-257 melanoma
OVCAR-8 ovarian = test system: OVCAR-8 ovarian
SF-539 CNS = test system: SF-539 CNS
U251 CNS = test system: U251 CNS
DLD-1 colon = test system: DLD-1 colon
CCRF-CEM leukemia = test system: CCRF-CEM leukemia
HOP-92 NSCLC = test system: HOP-92 NSCLC
HT29 colon = test system: HT29 colon
SF-268 CNS = test system: SF-268 CNS
SN12C renal = test system: SN12C renal
HOP-62 NSCLC = test system: HOP-62 NSCLC
HCT-116 colon = test system: HCT-116 colon
MALME-3M melanoma = test system: MALME-3M melanoma
COLO 205 colon = test system: COLO 205 colon
ACHN renal = test system: ACHN renal
HOP-18 NSCLC = test system: HOP-18 NSCLC
TK-10 renal = test system: TK-10 renal
SK-MEL-2 melanoma = test system: SK-MEL-2 melanoma
NCI-H226 lung = test system: NCI-H226 lung
SK-MEL-28 melanoma = test system: SK-MEL-28 melanoma
MOLT-4 leukemia = test system: MOLT-4 leukemia
NCI-H23 lung = test system: NCI-H23 lung
NCI-H460 lung = test system: NCI-H460 lung
SNB-75 CNS = test system: SNB-75 CNS
DMS 273 small cell lung = test system: DMS 273 small cell lung
UO-31 renal = test system: UO-31 renal
CAKI-1 renal = test system: CAKI-1 renal
SF-295 CNS = test system: SF-295 CNS
K-562 leukemia = test system: K-562 leukemia
OVCAR-3 ovarian = test system: OVCAR-3 ovarian
NCI-H522 lung = test system: NCI-H522 lung
HCT-15 colon = test system: HCT-15 colon
SK-MEL-5 melanoma = test system: SK-MEL-5 melanoma
EKVX NSCLC = test system: EKVX NSCLC
HCC-2998 colon = test system: HCC-2998 colon
A498 renal = test system: A498 renal
SNB-19 CNS = test system: SNB-19 CNS

Measured: TGI

CN(C)c1ccc(C(C#N)NNC(=O)Cc2ccccc2)cc1 (centres undefined)
not listed: EKVX NSCLC | HCC-2998 colon | A498 renal | SNB-19 CNS
> 100 µM: all other assays above

O=C1/C(=N\O)C2CCC1C2 (centres undefined)
not listed: SR leukemia | DLD-1 colon
> 100 µM: all other assays above

NC(N)=N/N=C/c1oc(-c2ccc(S(=O)(=O)O)o2)c(-c2ccc(S(=O)(=O)O)o2)c1[N+](=O)[O-]
not listed: RPMI-8226 leukemia | SNB-78 CNS
> 100 µM: all other assays above

Clc1ccc(OCCSCCCCCCCCCCSCCOc2ccc(Cl)cc2)cc1
not listed: LXFL 529 NSCLC | OVCAR-4 ovarian | SR leukemia | M14 melanoma | HCT-116 colon
> 100 µM: all other assays above

O=C(c1ccccc1)C(c1ccccc1)C1(O)C(=O)Nc2c(Cl)ccc(Cl)c21 (centres undefined)
38.5 µM: HL-60(TB) leukemia | COLO 205 colon
31.2 µM: LXFL 529 NSCLC
49 µM: MOLT-4 leukemia
34.6 µM: SK-MEL-28 melanoma
32.6 µM: EKVX NSCLC
44.5 µM: SF-539 CNS
31 µM: HCT-116 colon
35.6 µM: NCI-H23 lung
46.6 µM: CCRF-CEM leukemia
47.1 µM: HT29 colon
54 µM: SF-268 CNS
39.1 µM: UO-31 renal
35.5 µM: OVCAR-5 ovarian
56.8 µM: NCI-H460 lung
37.2 µM: DMS 114 small cell lung
35.4 µM: HOP-92 NSCLC
> 100 µM: KM20L2 colon
42.7 µM: IGROV1 ovarian
30.7 µM: M14 melanoma
78.8 µM: U251 CNS
39.2 µM: SNB-75 CNS
31.7 µM: ACHN renal
39.5 µM: SK-MEL-2 melanoma
42.9 µM: DMS 273 small cell lung
39.8 µM: CAKI-1 renal
35 µM: DLD-1 colon | K-562 leukemia
> 60.8 µM: SK-OV-3 ovarian
64.6 µM: A498 renal
31.1 µM: SF-295 CNS
33.8 µM: RXF 393 renal | UACC-62 melanoma
34.9 µM: NCI-H522 lung
31.8 µM: SN12C renal
32.4 µM: OVCAR-3 ovarian
13.4 µM: OVCAR-4 ovarian
> 67.3 µM: TK-10 renal
49.8 µM: HOP-62 NSCLC
28 µM: LOX IMVI melanoma
44.7 µM: OVCAR-8 ovarian
40.8 µM: RPMI-8226 leukemia
50.5 µM: KM12 colon
31.3 µM: MALME-3M melanoma
29.9 µM: UACC-257 melanoma
> 69.1 µM: A549 NSCLC
> 85.6 µM: SNB-19 CNS
37.9 µM: SW-620 colon
34.1 µM: SK-MEL-5 melanoma
49.3 µM: HOP-18 NSCLC
77.7 µM: HCC-2998 colon
36.2 µM: HCT-15 colon
64 µM: SNB-78 CNS
39.9 µM: 786-0 renal
